Assay results reported in patent US7507727B2, “Substituted quinobenzoxazine analogs and methods of using thereof” (Cylene Pharmaceuticals, Inc., priority 2003, dated 2009).

Target: c-Myc template DNA (c-myc quadruplex)
Assay: Quadruplex binding / stop assay (Taq polymerase arrest, capillary electrophoresis)
Conditions: read-out: Stop Data c-Myc μM; concentration at which 50% of the DNA was arrested (arrested:full-length 1:1)

Structure (SMILES) | IC50 [µM]
O=C(O)c1cn2c3c(c(NCC4CCCO4)c(F)cc3c1=O)Oc1cc3ccccc3cc1-2 (stereo not shown) [compound 1] | 4
O=C(O)c1cn2c3c(c(NCCN4CCCC4)c(F)cc3c1=O)Oc1cc3ccccc3cc1-2 [compound 2] | 2.5
O=C(O)c1cn2c3c(c(NCCN4CCCC4)c(F)cc3c1=O)Oc1c-2ccc2ccccc12 [compound 3] | 2.5
CN(C)CCCCNc1c(F)cc2c(=O)c(C(=O)O)cn3c2c1Oc1c-3ccc2ccccc12 [compound 4] | 1.76
O=C(O)c1cn2c3c(c(NCCCN4CCOCC4)c(F)cc3c1=O)Oc1cc3c(cc1-2)-c1ccccc1C3 [compound 6] | 1.75
CN1CCCC1CCNc1c(F)cc2c(=O)c(C(=O)O)cn3c2c1Oc1cc2ccccc2cc1-3 (stereo not shown) [compound 7] | 1.75
CN(C)CCCCNc1c(F)cc2c(=O)c(C(=O)O)cn3c2c1Oc1cc2ccccc2cc1-3 [compound 8] | 1.75
Nc1ccc2[nH]c3cc4oc5c(NCCN6CCCC6)c(F)cc6c(=O)c(C(=O)O)cn(c4cc3oc2c1)c56 [compound 9] | 1.75
CN(C)c1c(F)cc2c(=O)c(C(=O)O)cn3c4cc5oc6cc(N)ccc6[nH]c5cc4oc1c23 [compound 10] | 1.75
Nc1ccc2[nH]c3cc4oc5c(N6CC[C@H](N)C6)c(F)cc6c(=O)c(C(=O)O)cn(c4cc3oc2c1)c56 [compound 11] | 1.75
O=C(O)c1cn2c3c(c(NCCCN4CCOCC4)c(F)cc3c1=O)Oc1cc3c(O)ncnc3cc1-2 [compound 12] | 1.75
Nc1c(F)c(F)c2c3c1c(=O)c(C(=O)O)cn3-c1cc3ccccc3cc1O2 [compound 13] | 1.75
Nc1c(F)c(NCCCN2CCOCC2)c2c3c1c(=O)c(C(=O)O)cn3-c1cc3ccccc3cc1O2 [compound 14] | 1.75
CC(C)(C)OC(=O)NC1CCN(c2c(F)c(N)c3c(=O)c(C(=O)O)cn4c3c2Oc2cc3ccccc3cc2-4)C1 (stereo not shown) [compound 15] | 1.75
Nc1c(F)cc2c(=O)c(C(=O)O)cn3c2c1Oc1c-3ccc2ccccc12 [compound 16] | 0.9
O=C(O)c1cn2c3cc4oc5cc([N+](=O)[O-])ccc5[nH]c4cc3oc3c(NCCN4CCCC4)c(F)cc(c1=O)c32 [compound 17] | 0.75
O=C(O)c1cn2c3cc4oc5cc([N+](=O)[O-])ccc5[nH]c4cc3oc3c(NCCCN4CCOCC4)c(F)cc(c1=O)c32 [compound 18] | 0.75
CN(C)CCCCNc1c(F)cc2c(=O)c(C(=O)O)cn3c4cc5oc6cc([N+](=O)[O-])ccc6[nH]c5cc4oc1c23 [compound 19] | 0.75
CN1CCCC1CCNc1c(F)cc2c(=O)c(C(=O)O)cn3c4cc5oc6cc(N)ccc6[nH]c5cc4oc1c23 (stereo not shown) [compound 20] | 0.75
CN(C)CCCCNc1c(F)cc2c(=O)c(C(=O)O)cn3c4cc5oc6cc(N)ccc6[nH]c5cc4oc1c23 [compound 21] | 0.75
CN1CCN(CCCNc2c(F)cc3c(=O)c(C(=O)O)cn4c5cc6oc7cc(N)ccc7[nH]c6cc5oc2c34)CC1 [compound 22] | 0.75
O=C(O)c1cn2c3c(c(N4CC5CCCNC5C4)c(F)cc3c1=O)Oc1cc3ccccc3cc1-2 (stereo not shown) [compound 23] | 0.75
CN(CCc1ccccn1)C(=O)c1ccc2c(c1)Oc1c(NCCCn3ccnc3)c(F)cc3c(=O)c(C(=O)N(C)CCc4ccccn4)cn-2c13 [compound 39] | 2.5
O=C(NCCCn1ccnc1)c1cn2c3c(c(NCCCn4ccnc4)c(F)cc3c1=O)Oc1cc3ccccc3cc1-2 [compound 40] | 2.5
CN1CCCN(c2c(F)cc3c(=O)c(C(=O)N4CCOCC4)cn4c3c2Oc2cc3ccccc3cc2-4)CC1 [compound 41] | 2.5
CCN1CCCC1CNc1c(F)cc2c(=O)c(C(=O)N3CCOCC3)cn3c2c1Oc1cc2ccccc2cc1-3 (stereo not shown) [compound 42] | 2.5
O=C(c1cn2c3c(c(NCCN4CCCC4)c(F)cc3c1=O)Oc1cc3ccccc3cc1-2)N1CCOCC1 [compound 43] | 2.5
O=C(c1cn2c3c(c(NCC4CCNCC4)c(F)cc3c1=O)Oc1cc3ccccc3cc1-2)N1CCOCC1 [compound 44] | 2.5
